# Where two headings read alike, the source gives them in different places.
# Key:
# subjects with RRMS [1] = assay: ALLEGRO Phase III clinical trial, laquinimod 0.6 mg over placebo, double-blind; type: in vivo, human; details: laquinimod 0.6 mg vs placebo, 24 months
# Experimental: ALLEGRO and BRAVO are two clinical trials reported in, e.g., PCT International Application Publication No. WO/2010/147665 ([…] et al.). ALLEGRO was a study performed in subjects with RRMS to assess the efficacy, safety and tolerability of laquinimod 0.6 mg over placebo in a double-blind design. The treatment duration in this study was 24 months and it enrolled 1,106 patients equally distributed between laquinimod 0.6 mg and placebo arms. The primary endpoint was annualized relapse rate (ARR). Secondary endpoints were gadolinium-enhancing (GdE)-T1 and new-T2 lesions, time to Expanded Disability Status Scale (EDSS) progression confirmed at 3 months and multiple sclerosis functional composite (MSFC) z-score. In ALLEGRO the primary endpoint (ARR) and three key secondary endpoints were met.
# subjects with RRMS [2] = assay: BRAVO Phase III clinical trial, laquinimod 0.6 mg over placebo with reference arm IFN-β-1a (Avonex®); type: in vivo, human; details: vs placebo, 24 months
# From the text: ALLEGRO and BRAVO are two clinical trials reported in, e.g., PCT International Application Publication No. WO/2010/147665 ([…] et al.). […] The primary endpoint was ARR. Secondary endpoints were Brain atrophy, time to EDSS progression confirmed at 3 months and MSFC z-score. […] One of the basic assumptions used to assess the sample size for the study was that treatment with laquinimod will reduce the patient population ARR by 25% or more when compared to the placebo group.
# [3] = tested on: subjects with relapsing remitting multiple sclerosis (RRMS); assay: Clinical trial MS-LAQ-305 (Phase III), oral laquinimod 0.6 mg/day or 1.2 mg/day vs placebo; type: in vivo, human
# Experimental: A multinational, multicenter, randomized, double-blind, parallel-group, placebo-controlled study followed by an active treatment (clinical trial MS-LAQ-305) is conducted to evaluate the efficacy, safety and tolerability of two doses of oral administration of laquinimod (0.6 mg/day or 1.2 mg/day) laquinimod in subjects with relapsing remitting multiple sclerosis (RRMS). Study Duration • Screening period: up to 1 month. • Double-blind Placebo-controlled (DBPC) period (Period 1): At least 15 months, but not more than 24 months of once-daily, oral administration of either laquinimod 0.6 mg, 1.2 mg or matching oral placebo. DBPC period for all subjects is declared closed when all ongoing enrolled subjects complete at least 15 months of treatment. • Active-treatment (AT) period (Period 2): In this period (24 months), subjects who are assigned to either 0.6 mg or 1.2 mg daily oral laquinimod during the DBPC period continue with the same treatment assignment, whereas those who are assigned to placebo receive 1.2 mg daily oral laquinimod. Eligible subjects (approximately 1,800) are randomized in a 1:1:1 ratio into one of the following treatment arms: • 1. Laquinimod 0.6 mg: two capsules, one containing 0.6 mg laquinimod and the other containing matching placebo, administered orally once daily. • 2. Laquinimod 1.2 mg: two capsules containing 0.6 mg laquinimod administered orally once daily. • 3. Matching placebo: two capsules containing placebo (matching to the 0.6 mg) administered orally once daily. The study comprises of two treatment periods, Double-blind Placebo-controlled (DBPC) and Active-treatment (AT). Subjects who complete 24 months on study drug in Period 1 or complete at least 15 months on study drug when Period 1 is declared closed continue on to Period 2. The following assessments are performed at the specified time points: • 1. Vital signs are measured at each study visit. • 2. A physical examination is performed at months -1 (screening), 0 (baseline) 1, 3, 6, and every 6 months thereafter, ETD (if applicable) and until completion visit of Period 1. During Period 2, a physical examination is performed at months 0AT (baseline, completion visit of Period 1), 1AT, 3AT, 6AT and every 6 months thereafter, until completion/ETD of Period 2. • 3. The following safety clinical laboratory tests are performed: • (a) Complete blood count (CBC) with differential-at all scheduled visits during Periods 1 and 2. • (b) Serum chemistry (including electrolytes, liver enzymes, urea, creatinine, calculated Glomerular Filtration Rate (GFR)-at screening and prior to each MRI scan, glucose, total protein, albumin, direct and total bilirubin and pancreatic amylase)-at all scheduled visits during the DBPC and AT periods. Calculated Glomerular Filtration Rate (GFR) is done at screening and prior to each MRI scan in both study periods. • (c) Lipid profile (total cholesterol, HDL, LDL, triglycerides)-at baseline and every 12 months during the DBPC and AT periods. • (d) Urinalysis-at the screening visit. • (e) Serum β-hCG (human choriogonadotropin beta) in women of child-bearing potential-at each scheduled study visit during the DBPC and AT periods. • (f) Urine β-hCG test in women of child-bearing potential-at baseline (month 0) and at all scheduled visits during the DBPC and AT periods. • (g) Starting after visit Month 3, between scheduled visits, a rapid urine β-hCG test is performed in women of child-bearing potential every 28 (±2) days. The subject is contacted within 72 hours after the scheduled test is performed and asked specific questions regarding the test. In case of suspected pregnancy (positive urine β-hCG test result) the caller instructs the subject to make sure that the study drug has been discontinued and the subject arrives at the site as soon as possible (within 10 days) with all study drugs-during the DBPC and AT periods. • 4. […]
# relapsing MS = details: cited from earlier work
# MS = details: 0.3 mg/day oral (Comi, 2007); cited from earlier work
# [4] = in vivo; cited from earlier work
# [5] = corrected post-hoc analysis with two baseline MRI covariates
# [6] = daily oral 1.2 mg compared to 0.6 mg laquinimod or placebo
smiles,measurement,setting,value
"CCN(C(=O)c1c(O)c2c(Cl)cccc2n(C)c1=O)c1ccccc1 [Laquinimod, laquinimod]",ARR % reduction,subjects with RRMS [1],23%
same,Brain Atrophy (exploratory endpoint) % reduction,subjects with RRMS [1],32.8%
same,Cumulative number of GdE T1 lesions % reduction,subjects with RRMS [1],37%
same,Cumulative number of new T2 lesions % reduction,subjects with RRMS [1],30%
same,EDSS Progression (3 m confirmation) % reduction,subjects with RRMS [1],36%
same,MSFC z-score % reduction,subjects with RRMS [1],51%
same,"ARR % reduction, Corrected",subjects with RRMS [2]; [5],21.3%
same,"Brain Atrophy % reduction, Corrected",subjects with RRMS [2]; [5],27.4%
same,"Cumulative number of GdE T1 lesions % reduction, Corrected",subjects with RRMS [2]; [5],21.7%
same,"Cumulative number of new T2 lesions (exploratory endpoint) % reduction, Corrected",subjects with RRMS [2]; [5],18.7%
same,"EDSS Progression (3 m confirmation) % reduction, Corrected",subjects with RRMS [2]; [5],33.5%
same,"MSFC % reduction, Corrected",subjects with RRMS [2]; [5],77.1%
same,"ARR % reduction, Corrected","subjects with RRMS [2]; corrected post-hoc analysis with two baseline MRI covariates, listed as laquinimod",21.3%
same,"ARR % reduction, Original",subjects with RRMS [2]; original analysis,17.7%
same,"Brain Atrophy % reduction, Original",subjects with RRMS [2]; original analysis,27.6%
same,"Cumulative number of GdE T1 lesions % reduction, Original",subjects with RRMS [2]; original analysis,21.5%
same,"Cumulative number of new T2 lesions (exploratory endpoint) % reduction, Original",subjects with RRMS [2]; original analysis,16.5%
same,"EDSS Progression (3 m confirmation) % reduction, Original",subjects with RRMS [2]; original analysis,31.3%
same,"MSFC % reduction, Original",subjects with RRMS [2]; original analysis,77.7%
same,"ARR % reduction, Original","subjects with RRMS [2]; original analysis, listed as laquinimod",17.7%
same,Efficacy in treating RRMS patients with respect to all endpoints,[3]; 1.2 mg/day compared to 0.6 mg/day laquinimod,improved efficacy
same,Fatigue and functional status,[3]; 1.2 mg/day compared to 0.6 mg/day laquinimod or placebo,maintained or improved
same,Time to first confirmed relapse,[3]; daily oral 1.2 mg compared to 0.6 mg laquinimod and placebo,prolonged time to first confirmed relapse
same,Accumulation of disability as measured by the MSFC score or Timed 25-foot walk (T25FW),[3]; [6],reduced the accumulation of disability
same,Annualized relapse rate,[3]; [6],lower annualized relapse relate
same,"Brain atrophy, percent brain volume change from baseline to month 15",[3]; [6],reduced brain atrophy
same,"Brain atrophy, percent change in brain volume from baseline to month 24",[3]; [6],reduced brain atrophy
same,"Functional status and general health, Short-Form general health survey (SF-36)",[3]; [6],improved functional status and general health
same,"MRI-monitored disease activity (enhancing T1, new hypointense T1, new T2 lesion numbers and lesion volume changes)",[3]; [6],reduced MRI-monitored disease activity
same,Neuroprotection,[3]; [6],more effective in providing neuroprotection
same,Number of confirmed relapses,[3]; [6],reduced number of confirmed relapses
same,Symbol Digit Modalities Test (SDMT) score,[3]; [6],improved Symbol Digit Modalities Test (SDMT) score
same,Time to Confirmed Disease Progression (CDP),[3]; [6],prolonged time to CDP
same,Development of active MRI lesions,"relapsing MS; 0.3 mg/day oral, relapsing MS (RRMS and SPMS) (Polman, 2005)",reduce development of active MRI lesions
same,Development of active MRI lesions,"relapsing MS; relapsing MS, dose not stated (Polman, 2005)",reduce development of active MRI lesions
same,MRI and clinical effect as compared to placebo,MS,neither MRI nor clinical effect
same,Oral bioavailability,[4],high
